From patent publication US7524975B2, “Peroxisome proliferator activated receptor ligand and process for producing the same” (Kaneka Corporation, priority 2001, dated 2009)

Molecular target: T1, mouse PPARγ ligand-binding site (Mus musculus, UniProt P37238)
T1 construct: expressed in transfected cells; host or cells: CV-1 cells (African green monkey kidney)
T1 sequence (P37238 174-475 isoform P37238-2): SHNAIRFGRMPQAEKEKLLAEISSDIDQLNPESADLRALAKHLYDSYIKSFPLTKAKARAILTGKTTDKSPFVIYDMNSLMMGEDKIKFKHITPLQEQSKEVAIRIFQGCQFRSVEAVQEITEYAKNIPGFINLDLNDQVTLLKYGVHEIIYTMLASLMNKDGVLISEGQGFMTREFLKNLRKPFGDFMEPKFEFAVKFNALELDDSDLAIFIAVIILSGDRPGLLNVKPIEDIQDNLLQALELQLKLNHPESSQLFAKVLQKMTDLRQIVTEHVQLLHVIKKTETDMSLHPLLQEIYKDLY
Test: Measurement of PPARγ ligand activity (GAL4 chimera luciferase reporter in CV-1 cells)
Format: cell-based
Conditions: CV-1 cells, 24 hours, specific activity relative to untreated control (DMSO) = 1.00
Experimental: CV-1 cells (cultured cells derived from the kidney of a male African green monkey) were inoculated on a 96-well culture plate in a concentration of 6×10^3 cells/well and incubated at 37° C. in 5% CO2 for 24 hours. The medium used was DMEM (Dulbecco's Modified Eagle Medium: GIBCO) containing 10% FBS (fetal bovine serum), 10 ml/L penicillin and streptomycin solution (containing 5000 IU/ml and 5,000 μg/ml, respectively: GIBCO) and 37 mg/L ascorbic acid (Wako Pure Chemical Industries, Ltd.). […] 4xUASg-luc is a reporter plasmid comprising four GAL4 response sequences (UASg) integrated into a region upstream of a luciferase gene. At about 24 hours after transfection, the medium was exchanged with a sample-containing medium, and the cells were cultured for 24 hours (n=4). The sample-containing medium was prepared by dissolving a sample in dimethyl sulfoxide (DMSO) in an amount of 1/1000 based on the medium, while for the untreated control, DMSO in an amount of 1/1000 based on the medium was used in place of the sample. After the cells were washed with a Ca- and Mg-containing phosphate buffered physiological saline (PBS+), LucLite (Packard) was added thereto, and the intensity of luciferase luminescence was measured with a TopCount microplate scintillation/luminescence counter (Packard).
As the control group, pM (plasmid from which the PPARγ ligand-binding site gene was removed) was measured in place of pM-mPPARγ in the same manner as for the measurement group. For each sample, the ratio (measurement group/control group) of the average luminescence intensity of the measurement group (n=4) to that of the control group was calculated, and the specific activity relative to the activity of the untreated control was regarded as the PPARγ ligand activity of the sample.

PPARγ ligand activity (added concentration 2 μg/ml)	PPARγ ligand activity (added concentration 5 μg/ml)	PPARγ ligand activity (added concentration 10 μg/ml)	SMILES
2.03	2.79	3.82	COc1c(CC=C(C)C)c(O)cc2oc(=O)c(-c3ccc(O)cc3O)cc12 [Compound 1, Glycycoumarin]
1.28	1.96	2.73	CC(C)=CCc1cc(-c2coc3c(CC=C(C)C)c(O)cc(O)c3c2=O)cc(O)c1O [Compound 3, Glyurallin B]
2.95	3.72	4.00	COc1cc2c(c(OC)c1CC=C(C)C)C=C(c1ccc(O)cc1O)CO2 [Compound 4, 3-(2′,4′-dihydroxyphenyl)-6-(3″,3″-dimethylallyl)-5,7-dimethoxy-2H-chromene]
1.45	2.35	2.49	COc1cc(O)ccc1/C=C/C(=O)c1ccc(O)cc1 [Compound 5, Echinatin]
1.73	2.50	3.82	CC(C)=CCc1cc(-c2oc3cc(O)cc(O)c3c(=O)c2O)ccc1O [Compound 6, Isolicoflavonol]
2.90	3.73	4.41	COc1c2c(cc(O)c1CC=C(C)C)OCC(c1ccc(O)cc1O)=C2 [Compound 7, Dehydroglyasperin C]
2.60	3.53	3.02	COc1cc2c(c(O)c1CC=C(C)C)C(=O)C(c1ccc(O)cc1O)CO2 (stereo not drawn) [Compound 8, Glyasperin B]
2.01	3.45	4.68	COc1cc(O)cc2c1C(=O)C(c1cc(O)c3c(c1)C=CC(C)(C)O3)CO2 (stereo not drawn) [Compound 9, Glycyrrhisoflavanone]
1.67	2.53	3.75	CC(C)=CCc1c(O)cc(O)c2c(=O)c(-c3ccc(O)cc3)coc12 [Compound 10, Lupiwighteone]
3.22	3.28	4.06	COc1cc2c(c(OC)c1CC=C(C)C)CC(c1ccc(O)cc1O)CO2 (stereo not drawn) [Compound 11, Glyasperin D]
1.86	2.66	3.15	CC1(C)C=Cc2cc(-c3coc4cc(O)cc(O)c4c3=O)cc(O)c2O1 [Compound 12, Semilicoisoflavone B]
1.86	2.37	3.47	COc1c(-c2ccc(O)cc2)oc2cc(O)cc(O)c2c1=O [Compound 14, Kaempferol3-O-methylester]
1.44	2.27	4.07	CC(C)=CCc1c(O)cc2oc(-c3ccc(O)cc3)c(O)c(=O)c2c1O [Compound 15, Licoflavonol]
2.56	3.64	5.84	COc1c(-c2ccc(O)cc2)oc2cc(O)c(CC=C(C)C)c(O)c2c1=O [Compound 16, Topazolin]
1.78	3.05	3.20	CC(C)=CCc1cc(-c2coc3cc(O)cc(O)c3c2=O)cc(O)c1O [Compound 17, Glycyrrhisoflavone]
1.64	2.15	1.98	CC1(C)C=Cc2c(ccc3c2OC[C@@H](c2ccc(O)cc2O)C3)O1 [Compound 18, Glabridin]
1.78	3.44	2.89	CC1(C)C=Cc2c(O)ccc(C3=Cc4ccc(O)cc4OC3)c2O1 [Compound 19, Glabrene]

SMILES	PPARγ ligand activity (added concentration 2 μg/ml)	PPARγ ligand activity (added concentration 5 μg/ml)	PPARγ ligand activity (added concentration 10 μg/ml)
O=C(/C=C/c1ccc(O)cc1)c1ccc(O)cc1O [Compound 13, Isoliquiritigenin]	1.47	2.71	3.39
